This note sets out measurements from patent US5220001A, “Anthracycline glycoside derivatives” (Zaidan Hojim Biseibutsu Dong-A Pharm Co., priority 1989, dated 1993).

Usually IC50 stands for the concentration at which inhibition is half-maximal.

Each structure is given as a SMILES string. Where a name gives a salt, the structure may show the parent alone. Read-outs that look alike come from different tables or passages of the source.

In series [1] the test system is L1210 murine leukemia cells. Kind of series: In vitro growth inhibition activity on L1210 murine leukemia cells (tetrazolium-based MTT colorimetric assay). The following applies: Mus musculus. It counts as cell-based. Here is the method: In vitro growth inhibition activity of the compounds of present invention on L1210 murine leukemia cells was assessed by tetrazolium-based colorimetric assay described in Cancer Research Vol. 47, pp. 936-942, February 1987 with some modifications.
L1210 murine leukemia cells in exponential phase were plated at the density of 1×10^5 cells per well in 96-well microliter plates. The cell culture medium was RPMI 1640 (Roswell Park Memorial Institutes 1640) medium supplemented with 10% heat inactivated fetal bovine serum (FBS), 2mM L-glutamine, penicillin G sodium (100 units per ml of medium), and steptomycin sulfate (1 mg per ml of medium). The anthracycline compounds of present invention and doxorubicin hydrochloride were added to give final concentrations from 1 ng per ml to 300 ng per ml, while the control contained no drug.
The cells were incubated for 72 hours at 37.C. in an atmosphere of 10% CO2 and 90% air. At the end of drug exposure, 50 μl MTT(3-(4,5-dimethylthiazol-2-yl)-2,5-diphenyltetrazolium bromide) solution (2 mg per ml in phosphate-buffered saline) was added to each well and cultures were incubated at 37° C. for 4 hours in Co2 incubator. The MTT is reduced to water insoluble MTT formazan(1-(4,5-dimethylthiazol-2-yl)-3,5-diphenylformazan) by mitochondrial succinate dehydrogenase only in living cells. At the end of incubation, 200 μl of supernatant was removed and the MTT formazan crystal was dissolved by adding 200 μl dimethylsulfoxide with mixing them.
The plates were then read immediately at 540 nm on a scanning multiwell spectrophotometer (enzyme-linked immunosorbent assay reader; Biotech Instruments Inc., Burlington, VT). The absorbance value corrected against uninoculated blank values. The absorbance values are directly proportional to the cell numbers in living state. The IC 50 defined a 50% reduction of absorbance against untreated control were calculated from dose-response curve and are shown in Table 2.
On the technique in general: Formazan colour is commonly taken as a measure of viable cells.

The subject of another series is L1210 murine leukemia. As to the kind of experiment: In vivo antitumor activity on DCF1 mice bearing L1210 murine leukemia. The following applies: for T/C (%): i.p. days 1, 5, 9, mean survival time vs control, 60-day observation. Here is the method: The in vivo antitumor activity of the compounds of present invention was studied on DCF1 mice bearing L1210 murine leukemia. Healthy female DCF1 mice were inoculated by intraperitoneal injection with 1×10^5 L1210 leukemia cells per animal. The inoculated mice were then treated intraperitoneally on the days 1, 5, 9 beginning on day 1, 24 hours after inoculation of the leukemia cells with various doses of test compounds. Doxorubicin hydrochloride was administered for comparison. All test compounds and doxorubicin hydrochloride were dissolved in filtered (0.22 μm) distilled water. […] The results are shown in Table 1 where T/C(%) values are determined by dividing the mean survival time of the treated mice by that of the control mice, the quotient so obtained being multiplied by 100. The survival time of the mice which survived more than 60 days after tumor inoculation was scored as 60 days. An increase on the T/C(%) indicates an increase in the antitumor activity of the compound.

[2] abbreviates: L1210 cells, 72 hours, MTT, 50% reduction of absorbance against untreated control, read-out: IC50.

With `COc1cccc2c1C(=O)c1c(O)c3c(c(O)c1C2=O)CC(O)(C(=O)COC(=O)CCCCCN)CC3OC1OC(C)C(O)C(O)C1F` [Example 7, 7-0-(2,6-dideoxy-2 fluoro-α-L-talopyranosyl)adriamycinone 14-0-(6-aminohexanoate) HCl salt], 0.0745 µg/mL corresponded to half-maximal inhibition in series [1] (L1210, 72 h) (IC50). The “T/C (%)” value stood at 111% in the series with L1210 murine leukemia (dose 0.125 mg/kg); 122% in the series on L1210 murine leukemia (dose 0.250 mg/kg); 168% in the series with L1210 murine leukemia (dose 0.500 mg/kg); 242% with L1210 murine leukemia (dose 1.000 mg/kg); 329% in the series with L1210 murine leukemia (dose 2.000 mg/kg); 348% with L1210 murine leukemia (dose 4.000 mg/kg). The “T/C (%)” value in the series with L1210 murine leukemia (dose 8.000 mg/kg) was 367%; in the series with L1210 murine leukemia (dose 16.000 mg/kg), 441%; with L1210 murine leukemia (dose 32.000 mg/kg), 663%.

For the molecule `COc1cccc2c1C(=O)c1c(O)c3c(c(O)c1C2=O)CC(O)(C(=O)COC(=O)C(C)N)CC3OC1OC(C)C(O)C(O)C1F` [Example 9, 7-0-(2,6-dideoxy-2-fluoro-α-L-talopyranosyl)adriamycinone 14-0-L-alaninate HCl salt], the concentration for half-maximal inhibition (IC50) in series [1] (setting [2]) was 0.0143 µg/mL. The “T/C (%)” value is 171% in the series with L1210 murine leukemia (dose 0.125 mg/kg); 190% in the series with L1210 murine leukemia (dose 0.250 mg/kg); 244% in the series with L1210 murine leukemia (dose 0.500 mg/kg); 287% in the series on L1210 murine leukemia (dose 1.000 mg/kg); 356% in the series on L1210 murine leukemia (dose 2.000 mg/kg); 468% in the series with L1210 murine leukemia (dose 4.000 mg/kg). Also, the “T/C (%)” value worked out at 488% with L1210 murine leukemia (dose 8.000 mg/kg), 660% in the series on L1210 murine leukemia (dose 16.000 mg/kg) and 727% in the series on L1210 murine leukemia (dose 32.000 mg/kg).

With `COc1cccc2c1C(=O)c1c(O)c3c(c(O)c1C2=O)CC(O)(C(=O)COC(=O)C(N)C(C)C)CC3OC1OC(C)C(O)C(O)C1F` [Example 11, 7-0-(2,6-dideoxy-2-fluoro-α-L-talopyranosyl)adriamycinone 14-0-L-valinate HCl salt], the IC50 in series [1] (setting [2]) came to 0.0155 µg/mL. Besides, the “T/C (%)” value is 150% with L1210 murine leukemia (dose 0.125 mg/kg); 168% in the series on L1210 murine leukemia (dose 0.250 mg/kg); 226% in the series with L1210 murine leukemia (dose 0.500 mg/kg); 298% in the series on L1210 murine leukemia (dose 1.000 mg/kg); 492% with L1210 murine leukemia (dose 2.000 mg/kg); 559% in the series with L1210 murine leukemia (dose 4.000 mg/kg). Also, the “T/C (%)” value with L1210 murine leukemia (dose 8.000 mg/kg) was 586%; with L1210 murine leukemia (dose 16.000 mg/kg) it was 727%; with L1210 murine leukemia (dose 32.000 mg/kg), 252%.

For the molecule `COc1cccc2c1C(=O)c1c(O)c3c(c(O)c1C2=O)CC(O)(C(=O)COC(=O)CCN)CC3OC1OC(C)C(O)C(O)C1F` [Example 5, 7-0-(2,6-dideoxy-2-fluoro-α-L-talopyranosyl)adriamycinone 14-0-β-alaninate HCl salt], the IC50 in series [1] (setting [2]) stood at 0.0101 µg/mL. For the same molecule, the “T/C (%)” value with L1210 murine leukemia (dose 0.125 mg/kg) is 140%; in the series on L1210 murine leukemia (dose 0.250 mg/kg), 162%; in the series with L1210 murine leukemia (dose 0.500 mg/kg), 189%; in the series on L1210 murine leukemia (dose 1.000 mg/kg), 248%; in the series on L1210 murine leukemia (dose 2.000 mg/kg) it was 361%; in the series with L1210 murine leukemia (dose 4.000 mg/kg) it was 333%. In addition, the “T/C (%)” value stood at 500% with L1210 murine leukemia (dose 8.000 mg/kg), 636% in the series with L1210 murine leukemia (dose 16.000 mg/kg) and 542% with L1210 murine leukemia (dose 32.000 mg/kg).

In the case of `COc1cccc2c1C(=O)c1c(O)c3c(c(O)c1C2=O)CC(O)(C(=O)COC(=O)C1CCCN1)CC3OC1OC(C)C(O)C(O)C1F` [Example 13, 7-0-(2,6-dideoxy-2-fluoro-α-L-talopyranosyl)adriamycinone 14-0-L-prolinate HCl salt], the IC50 in series [1] (setting [2]) was 0.0163 µg/mL. Further, the “T/C (%)” value with L1210 murine leukemia (dose 0.125 mg/kg) was 140%; in the series on L1210 murine leukemia (dose 0.250 mg/kg) it was 159%; in the series with L1210 murine leukemia (dose 0.500 mg/kg), 213%; with L1210 murine leukemia (dose 1.000 mg/kg), 313%; in the series on L1210 murine leukemia (dose 2.000 mg/kg), 367%; in the series on L1210 murine leukemia (dose 4.000 mg/kg), 283%. Further, the “T/C (%)” value is 427% in the series with L1210 murine leukemia (dose 8.000 mg/kg), 635% in the series with L1210 murine leukemia (dose 16.000 mg/kg) and 525% with L1210 murine leukemia (dose 32.000 mg/kg).

With `COc1cccc2c1C(=O)c1c(O)c3c(c(O)c1C2=O)CC(O)(C(=O)COC(=O)CN)CC3OC1OC(C)C(O)C(O)C1F` [Example 3, 7-0-(2,6-dideoxy-2-fluoro-α-L-talopyranosyl)adriamycinone 14-0-glycinate HCl salt], the IC50 in series [1] (setting [2]) is 0.0134 µg/mL. Besides, in the series on L1210 murine leukemia (at 32 mg/kg, 16 mg/kg and 8 mg/kg i.p.), the “cure of tumored mice” value is reported as “cured all tumored mice”. In addition, the “T/C (%)” value in the series on L1210 murine leukemia (dose 0.125 mg/kg) is on record as 186%; with L1210 murine leukemia (dose 0.250 mg/kg) it was 238%; in the series on L1210 murine leukemia (dose 0.500 mg/kg) it was 328%; with L1210 murine leukemia (dose 1.000 mg/kg), 230%; in the series with L1210 murine leukemia (dose 2.000 mg/kg) it was 255%; with L1210 murine leukemia (dose 4.000 mg/kg), 279%. In addition, the “T/C (%)” value in the series with L1210 murine leukemia (dose 8.000 mg/kg), in the series on L1210 murine leukemia (dose 16.000 mg/kg) and in the series with L1210 murine leukemia (dose 32.000 mg/kg) was 727% each time.

`COc1cccc2c1C(=O)c1c(O)c3c(c(O)c1C2=O)C[C@@](O)(C(=O)CO)C[C@@H]3O[C@H]1C[C@H](N)[C@H](O)[C@H](C)O1` [Doxorubicin hydrochloride, reference compound] registered an IC50 in series [1] (L1210, 72 h) of 0.0373 µg/mL. For the same molecule, in the series on L1210 murine leukemia (16 mg/kg compared with 8 mg/kg), the “toxicity (decrease in T/C(%) at high dose)” value is “significant decrease in T/C(%)”. The “T/C (%)” value in the series with L1210 murine leukemia (dose 0.125 mg/kg) stood at 141%; with L1210 murine leukemia (dose 0.250 mg/kg), 170%; in the series with L1210 murine leukemia (dose 0.500 mg/kg) it was 218%; in the series on L1210 murine leukemia (dose 1.000 mg/kg) it was 242%; with L1210 murine leukemia (dose 2.000 mg/kg) it was 242%; in the series with L1210 murine leukemia (dose 4.000 mg/kg), 469%. Besides, the entries for the “T/C (%)” value in the series on L1210 murine leukemia (dose 8.000 mg/kg) and in the series on L1210 murine leukemia (dose 16.000 mg/kg) were 303% and 109%, respectively.
